Measured values taken from patent US6849645B2, “Method of increased bioavailability of nutrients and pharmaceutical preparations with tetrahydropiperine and its analogues and derivatives” (priority 2000, dated 2005).
Entries after “also recorded” stand apart in the source; their conditions may differ.

Legend:
[1] = Franz diffusion cell, in vitro transdermal permeation of Forskolin with or without tetrahydropiperine; type: in vitro ADME, rat; conditions: for Increase in release (% of Forskolin): with THP vs control
Method: In vitro permeation studies of Forskholin, a diterpenoid compound which has various therapeutic effects (Bronchodilation—used in Asthma, prevents platelet aggregation, anti hypertensive, anti glaucoma and anti-inflammatory) was carried out. Fabricated Franz diffusion cells of capacity 67 and 69 ml were used for the study. Freshly excised rat abdominal skin was used for the permeation studies.
Solutions Used in the Study • a) 2.5% Forskolin in methanol. • b) 0.05% Tetrahydropiperine in 2.5% Forskolin in methanol. • c) 0.1% Tetrahydropiperine in 2.5% Forskolin in methanol. Procedure
Freshly excised rat abdominal […] was mounted on the Franz diffusion Cell, the outer layer of the skin facing the donor compartment. The receptor fluid was maintained at 35° C. using a thermostatic magnetic stirrer.
The study was conducted by replacing the medium in the receptor compartment with methanol instead of phosphate buffer. In both the receptor and donor compartment methanol was used as the medium in the permeation studies.
In the donor compartment 2 ml methanol containing 50 mg of Forskolin and tetrahydropiperine (5% of Forskolin conc.) was taken. Receptor compartment consisted of 69 ml of methanol maintained at 35° C. Permeation study was carried out for a period of 1 hr. Samples were withdrawn at 15, 30 and 60 minutes intervals and the amount of Forskholin present was analyzed by HPLC.
In the donor compartment 2 ml methanol containing 50 mg of Forskholin was taken. Receptor compartment consisted of 65 ml of methanol maintained at 35° C. Permeation study was carried out for a period of 1 hour. Samples were withdrawn at 15, 30 and 60 minutes intervals and the amount of Forskholin present was analyzed by HPLC.

[2] = Primary skin irritation potential, Draize's method; type: in vivo, New Zealand White rabbits
Method: The study was designed to determine the primary skin irritation potential on New Zealand White rabbits following the guidelines provided by Gaitonde Committee, CIB, New Delhi, India
New Zealand White, healthy, adult male and female rabbits, each group comprising of 3 randomly selected animals of each sex.
0.5 ml of the test substance was applied to dehaired intact and abraded skin sites of each test animal. Care was taken to note that the abrasions penetrated the Stratum corneum, but not the dermis. A gauze patch was secured over each treated area using tape. The patch and unabsorbed test substance were removed after 24 hours. Each site of application was carefully observed and the reaction evaluated according to Draize's method at 24 and 72 hours.

O=C(CCCCc1ccc2c(c1)OCO2)N1CCCCC1 [Tetrahydropiperine, 1-[5-(1,3-Benzodioxol-5 yl)-1-oxo-pentanoyl]-Piperidine]
permeation of Forskolin ([1]; Tetrahydropiperine 5% of Forskolin concentration): enhanced
permeation of Forskolin ([1]; tetrahydropiperine 2% of Forskolin concentration): enhanced permeation was not observed
Increase in release (% of Forskolin) ([1]; 15 min): 28.12%
Increase in release (% of Forskolin) ([1]; 30 min): 39.25%
Increase in release (% of Forskolin) ([1]; 60 min): 5.09%
skin reaction (erythema, edema, irritation) ([2]; 0.5 ml on intact and abraded skin sites, patch 24 hours, evaluated at 24 and 72 hours): No erythema or edema; also recorded: did not cause any irritation
primary skin irritation score ([2]; intact and abraded skin, Draize's method, 24 and 72 hours): zero
